Laboratory results published in ChEMBL document CHEMBL1201862, “PubChem BioAssay data set” (2004).
Calls of active or inactive are those of the source.

How the values were obtained:
Cytochrome P450 3A4 = Cytochrome P450 3A4 (Homo sapiens, UniProt P08684); conditions: Potency;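 note: confirmatory qHTS run detecting inhibitors and substrates of CYP3A4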
HT-1080 = test: HT1080 cell viability loss – fluorescence readout (AID 620); assay type: functional, cell-based; conditions: Homo sapiens
[1] = target: Luciferin 4-monooxygenase (Photinus pyralis, UniProt P08659); test: Counter Screen for Luciferase-based Assay Positives. [Related pubchem assays: 620, 618, 411 ]
[2] = viability of uninfected HEp-2 cells – cell-based, HTS, cytotoxicity control for RSV inhibitor project, dose response (AID 2410); assay type: functional; conditions: human respiratory syncytial virus
[3] = HEK-293T cell viability reduction – luminescence, B-cell screen hits, cytotoxicity control for BCR NF-kB inhibitor project, dose response (AID 489021); assay type: functional, cell-based;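 note: HEK-293T cells carrying an NF-kB luciferase reporter; cells exposed to compound for about 14 hours before viability readout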
[4] = alpha-synuclein stem-loop luciferase translation blockers – H4 neuroglioma cells, luminescence, confirmation (AID 1988); assay type: functional, cell-based
Melanocortin receptor 4 = Melanocortin receptor 4 (Homo sapiens, UniProt P32245); test: inhibitors of MC4R cAMP signaling – cell-based, TR-FRET, biased antagonists, dose response (AID 602298); assay type: functional;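 note: antagonist potency against agonist-stimulated cAMP production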
[5] = Luminescence Cell-Based Dose Response HTS to Identify Inhibitors of 5'UTR Stem-Loop Driven Prion Protein mRNA Translation in H4 Neuroglioblastoma Cells. [Related pubchem assays: 1827 (Project Summary), 1813 (Primary HTS)]; assay type: functional
[6] = cAMP pathway inhibition in counterscreen cell line – TR-FRET cAMP detection, counter-screen for MC4R biased antagonist project, dose response (AID 602305); assay type: functional, cell-based;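 note: U2OS cells stimulated with forskolin near its EC80 as the cAMP inducer; potency is for inhibition of forskolin-stimulated cAMP signaling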
[7] = luciferase reporter signal suppression in cells – H4 neuroglioma cells, luminescence, dose response (AID 1990); assay type: functional, cell-based
[8] = target: T1, Kappa-type opioid receptor (Homo sapiens, UniProt P41145); assay type: functional
[9] = target: T2, Sphingosine 1-phosphate receptor 4 (Homo sapiens, UniProt O95977); test: Fluorescence dose response cell-based high throughput screening assay for antagonists of the Sphingosine 1-Phosphate Receptor 4 (S1P4). [Related pubchem assays: 1524 (Confirmation in triplicates.), 1510 (Primary screen.)]; assay type: functional
T2 sequence (O95977 whole entry): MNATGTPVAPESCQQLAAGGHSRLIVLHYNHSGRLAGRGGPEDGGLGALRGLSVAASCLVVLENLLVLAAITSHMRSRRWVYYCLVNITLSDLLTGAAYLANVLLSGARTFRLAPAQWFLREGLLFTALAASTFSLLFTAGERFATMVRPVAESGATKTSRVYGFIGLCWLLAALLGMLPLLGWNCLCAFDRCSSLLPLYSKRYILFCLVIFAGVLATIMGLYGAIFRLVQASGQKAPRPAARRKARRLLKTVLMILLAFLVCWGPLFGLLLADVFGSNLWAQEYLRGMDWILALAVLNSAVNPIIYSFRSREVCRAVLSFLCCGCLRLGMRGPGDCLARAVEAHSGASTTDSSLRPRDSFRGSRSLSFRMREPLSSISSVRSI

INS1 = test: INS-1E survival protection against cytokine death – cell-based, luminescence, retest, dose response (AID 449756); assay type: functional; conditions: Rattus norvegicus;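 note: cell death triggered by IL-1 beta plus TNF-alpha plus IFN-gamma mixture; protective hits raise ATP signal compared with cytokine alone wells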
[10] = target: T1, Kappa-type opioid receptor; assay type: functional; remark: listed apart in the source
Beta-galactosidase = Beta-galactosidase (Escherichia coli, UniProt Q8VNN2); assay type: functional
[11] = target: Sphingosine 1-phosphate receptor 1 (Homo sapiens, UniProt P21453); assay type: functional;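 note: Tango beta-arrestin reporter U2OS cells stimulated with S1P near its EC80; inhibitor potency meaning antagonism of receptor activation by the natural agonist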
[12] = target: T3, Tyrosine-protein phosphatase non-receptor type 7 (Homo sapiens, UniProt P35236); test: SAR analysis of chemical inhibitors of HePTP using a Fluorescent assay - Set 2. [Related pubchem assays (depositor defined):AID1059, AID1077, AID1661, AID2085, AID521]; assay type: functional
T3 sequence (P35236 whole entry): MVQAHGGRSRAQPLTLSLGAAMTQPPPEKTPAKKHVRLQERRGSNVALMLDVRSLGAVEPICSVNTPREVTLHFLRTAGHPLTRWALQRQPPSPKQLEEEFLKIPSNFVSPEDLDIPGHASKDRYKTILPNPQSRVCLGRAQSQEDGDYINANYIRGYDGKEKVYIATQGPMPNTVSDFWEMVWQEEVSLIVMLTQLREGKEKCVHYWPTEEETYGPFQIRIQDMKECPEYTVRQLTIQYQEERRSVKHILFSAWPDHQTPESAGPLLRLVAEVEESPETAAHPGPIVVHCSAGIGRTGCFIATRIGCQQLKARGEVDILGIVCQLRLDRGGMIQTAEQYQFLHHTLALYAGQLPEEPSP

[13] = target: Dual specificity protein phosphatase 3 (Homo sapiens, UniProt P51452); test: SAR VHR1 Fluorescent Assay for In Vitro dose response studies Set 2. [Related pubchem assays (depositor defined):AID1654, AID1661, AID1878]; assay type: functional
Streptococcus = test: Luminescence Microorganism-Based Dose Response Follow up to Identify Compounds Cytotoxic to Streptococcus. [Related pubchem assays: 1677 (Project Summary), 1915, 1914, 1902 (Retest at Dose), 1900 (Counter Screen), 1662 (Primary HTS)]; assay type: functional, organism-based

T1 sequence (P41145 whole entry): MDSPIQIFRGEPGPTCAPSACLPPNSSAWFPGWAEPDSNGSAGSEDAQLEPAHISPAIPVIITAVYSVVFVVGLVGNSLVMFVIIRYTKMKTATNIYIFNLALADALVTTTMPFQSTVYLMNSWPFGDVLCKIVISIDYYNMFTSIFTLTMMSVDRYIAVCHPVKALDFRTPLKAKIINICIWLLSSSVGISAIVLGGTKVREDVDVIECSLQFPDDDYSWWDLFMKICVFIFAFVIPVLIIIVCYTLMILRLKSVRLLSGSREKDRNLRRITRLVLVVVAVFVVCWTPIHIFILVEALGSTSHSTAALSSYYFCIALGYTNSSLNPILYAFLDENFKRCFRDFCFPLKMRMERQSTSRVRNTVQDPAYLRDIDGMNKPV
Chain of Melanocortin receptor 4 (P32245 whole entry): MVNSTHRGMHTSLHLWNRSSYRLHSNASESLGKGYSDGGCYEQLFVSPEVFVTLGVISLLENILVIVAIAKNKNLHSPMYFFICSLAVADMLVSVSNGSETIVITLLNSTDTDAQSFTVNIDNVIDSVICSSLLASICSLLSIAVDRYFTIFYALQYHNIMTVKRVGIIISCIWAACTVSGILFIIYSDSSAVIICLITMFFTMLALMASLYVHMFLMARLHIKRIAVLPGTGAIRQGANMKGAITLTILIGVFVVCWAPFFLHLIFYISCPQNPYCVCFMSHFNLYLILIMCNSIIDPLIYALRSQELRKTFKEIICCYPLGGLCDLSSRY
Chain of Luciferin 4-monooxygenase (P08659 whole entry): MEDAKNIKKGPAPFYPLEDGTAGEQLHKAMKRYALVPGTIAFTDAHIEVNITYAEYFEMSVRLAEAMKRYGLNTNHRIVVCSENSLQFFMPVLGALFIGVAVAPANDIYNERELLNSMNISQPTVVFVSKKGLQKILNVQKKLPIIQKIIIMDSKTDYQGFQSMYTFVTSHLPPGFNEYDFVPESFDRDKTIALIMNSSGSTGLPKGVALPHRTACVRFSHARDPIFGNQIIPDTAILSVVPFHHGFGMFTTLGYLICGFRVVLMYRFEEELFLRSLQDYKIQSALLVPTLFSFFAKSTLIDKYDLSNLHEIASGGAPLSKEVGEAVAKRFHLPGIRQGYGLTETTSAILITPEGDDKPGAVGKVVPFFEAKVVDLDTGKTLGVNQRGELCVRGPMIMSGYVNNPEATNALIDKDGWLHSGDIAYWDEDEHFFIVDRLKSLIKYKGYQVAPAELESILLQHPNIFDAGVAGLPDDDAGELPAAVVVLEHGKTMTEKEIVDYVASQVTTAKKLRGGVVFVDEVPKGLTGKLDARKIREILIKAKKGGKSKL
Chain of Sphingosine 1-phosphate receptor 1 (P21453 whole entry): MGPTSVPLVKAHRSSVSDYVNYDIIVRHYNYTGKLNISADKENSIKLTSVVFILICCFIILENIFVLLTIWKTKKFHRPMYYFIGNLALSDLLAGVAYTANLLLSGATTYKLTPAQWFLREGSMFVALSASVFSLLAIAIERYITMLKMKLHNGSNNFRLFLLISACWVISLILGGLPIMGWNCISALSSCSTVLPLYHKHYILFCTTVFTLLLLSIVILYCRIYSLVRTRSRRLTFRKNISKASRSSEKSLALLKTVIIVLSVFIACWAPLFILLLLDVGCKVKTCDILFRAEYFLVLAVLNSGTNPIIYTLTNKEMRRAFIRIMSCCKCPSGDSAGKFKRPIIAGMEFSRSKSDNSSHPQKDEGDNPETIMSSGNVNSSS
Chain of Cytochrome P450 3A4 (P08684 whole entry): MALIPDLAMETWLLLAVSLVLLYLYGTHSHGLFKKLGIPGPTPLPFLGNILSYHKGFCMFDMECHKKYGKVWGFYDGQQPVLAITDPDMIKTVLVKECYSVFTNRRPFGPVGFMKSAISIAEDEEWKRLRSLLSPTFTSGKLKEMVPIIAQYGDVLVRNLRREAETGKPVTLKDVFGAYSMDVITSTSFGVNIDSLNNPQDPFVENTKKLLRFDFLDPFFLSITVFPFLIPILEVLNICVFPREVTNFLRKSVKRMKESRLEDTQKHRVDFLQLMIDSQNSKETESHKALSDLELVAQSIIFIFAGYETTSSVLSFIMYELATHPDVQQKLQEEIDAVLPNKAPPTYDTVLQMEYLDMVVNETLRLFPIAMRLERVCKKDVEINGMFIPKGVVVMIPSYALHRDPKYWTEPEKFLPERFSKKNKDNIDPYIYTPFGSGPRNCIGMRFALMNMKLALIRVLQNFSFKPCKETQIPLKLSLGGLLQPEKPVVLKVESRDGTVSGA
Chain of Beta-galactosidase (Q8VNN2 whole entry): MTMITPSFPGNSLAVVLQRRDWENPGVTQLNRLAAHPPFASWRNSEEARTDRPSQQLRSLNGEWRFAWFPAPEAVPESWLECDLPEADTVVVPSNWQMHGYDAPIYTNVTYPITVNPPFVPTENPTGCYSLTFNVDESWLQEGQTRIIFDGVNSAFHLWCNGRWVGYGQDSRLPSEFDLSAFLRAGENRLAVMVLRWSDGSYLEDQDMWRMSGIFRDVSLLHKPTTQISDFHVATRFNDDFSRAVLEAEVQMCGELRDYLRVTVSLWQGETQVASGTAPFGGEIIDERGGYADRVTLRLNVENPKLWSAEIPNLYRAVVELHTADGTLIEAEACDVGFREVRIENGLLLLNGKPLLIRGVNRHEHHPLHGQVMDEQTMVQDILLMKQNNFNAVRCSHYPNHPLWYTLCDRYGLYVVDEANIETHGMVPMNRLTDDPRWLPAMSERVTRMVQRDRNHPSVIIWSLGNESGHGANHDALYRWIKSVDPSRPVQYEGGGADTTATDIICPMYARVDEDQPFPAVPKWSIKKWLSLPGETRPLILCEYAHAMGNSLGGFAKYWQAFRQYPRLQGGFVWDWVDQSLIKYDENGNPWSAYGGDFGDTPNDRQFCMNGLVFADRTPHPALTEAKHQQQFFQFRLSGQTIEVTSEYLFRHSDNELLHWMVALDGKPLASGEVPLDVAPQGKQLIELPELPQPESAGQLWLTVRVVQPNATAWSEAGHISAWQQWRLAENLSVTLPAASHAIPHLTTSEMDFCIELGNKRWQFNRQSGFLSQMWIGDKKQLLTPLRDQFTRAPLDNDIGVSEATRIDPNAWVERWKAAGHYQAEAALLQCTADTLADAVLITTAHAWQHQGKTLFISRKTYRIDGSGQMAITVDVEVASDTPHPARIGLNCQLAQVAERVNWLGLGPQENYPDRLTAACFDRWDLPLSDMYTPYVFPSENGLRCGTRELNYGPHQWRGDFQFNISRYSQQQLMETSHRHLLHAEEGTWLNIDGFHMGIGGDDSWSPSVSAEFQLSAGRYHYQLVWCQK
Chain of Dual specificity protein phosphatase 3 (P51452 whole entry): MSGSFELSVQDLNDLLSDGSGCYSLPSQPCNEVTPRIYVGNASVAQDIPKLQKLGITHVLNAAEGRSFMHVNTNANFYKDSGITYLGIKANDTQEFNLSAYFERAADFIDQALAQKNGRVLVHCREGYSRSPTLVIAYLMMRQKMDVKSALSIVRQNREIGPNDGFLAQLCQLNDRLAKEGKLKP

For `CCOC(=O)CC(SP(=O)(OC)OC)C(=O)OCC` (stereo not drawn), the AC50 (Cytochrome P450 3A4) was 25.1 µM (inconclusive).
With `CC(=O)Nc1ccc(OC(=O)N2CCCCC2)cc1` the EC50 (HT-1080) was > 50 µM (not active) and the EC50 [1] was 3.67 µM (active).
In the case of `Cn1cnnc1Sc1cc(N2CCN(S(=O)(=O)c3ccc(Cl)c(Cl)c3)CC2)ccc1[N+](=O)[O-]`, the CC50 [2] is reported as > 50 µM (active) and the IC50 (cells) is reported as 10.7 µM (active).
For `CCC(=O)N1c2ccccc2[C@@H](N(C(C)=O)c2ccccc2)C[C@H]1C`, the IC50 [3] was > 80 µM (inactive).
With `COc1ccc(C(=O)/C(=C\c2ccco2)N2C=CC=CC2=C(C#N)C#N)cc1` the EC50 [4] was 0.141 µM (active), the IC50 (Melanocortin receptor 4) was > 64.6 µM (inactive) and the EC50 [5] was 12.3 µM (active). For the same compound, the IC50 [6] was > 64.6 µM (inactive), the EC50 [7] was 7.21 µM (inconclusive) and the IC50 [8] was 5.93 µM (active). The IC50 [9] was 2.01 µM (active), the AC50 (INS1) was 5.51 µM (active) and the IC50 [10] was 18 µM. For the same compound, the EC50 (Beta-galactosidase) was > 31.5 µM (inactive) and the IC50 [11] was 9.37 µM (active).
For `NS(=O)(=O)c1ccc(NC(=S)N2CCN(Cc3ccc(Cl)c(Cl)c3)CC2)cc1`, the IC50 [12] was 48.4 µM (active), the EC50 [4] was > 120 µM (not active) and the EC50 [5] was > 120 µM (not active). The IC50 [13] was > 100 µM (inactive) and the EC50 [7] was 34.5 µM (active).
With `Cc1ccc(C(=O)C(c2ccccc2)N2Cc3ccccc3C2=N)cc1` (stereo not drawn) the EC50 (Streptococcus) was 33.5 µM (active).
